Experimental data from ChEMBL document CHEMBL1136072, “Structural features of piperazinyl-linked ciprofloxacin dimers required for activity against drug-resistant strains of Staphylococcus aureus” (2003).

How the values were obtained:
Format in all cases: functional
Staphylococcus aureus [1] = assay: Minimum inhibitory concentration required against Staphylococcus aureus GISA 992, vancomycin-insensitive SA.
Staphylococcus aureus [2] = assay: Minimum inhibitory concentration required against Staphylococcus aureus SA-1199, wild-type isolate
Staphylococcus aureus [3] = assay: Minimum inhibitory concentration required against Staphylococcus aureus MRSA 494, methicillin resistant SA isolate
Staphylococcus aureus [4] = assay: Minimum inhibitory concentration required against Staphylococcus aureus SA 1199B, constitutively overexpresses norA and harbors a topoisomerase IV A subunit substitution (A116E); design: unit not given beside the values
Staphylococcus aureus [5] = assay: Minimum inhibitory concentration required against Staphylococcus aureus SA 1199-3, laboratory-derived mutant of SA 1199 that inducibly overexpresses norA, no gyrase or topoisomerase IV mutations

Work on `O=C(O)c1cn(C2CC2)c2cc(N3CCN(Cc4ccc(CN5CCN(c6ccccc6F)CC5)cc4)CC3)c(F)cc2c1=O` yielded an MIC (Staphylococcus aureus [1]) of 16 and an MIC (Staphylococcus aureus [2]) of 0.5.

For `CN1CCN(c2cc3c(cc2F)c(=O)c(C(=O)O)cn3C2CC2)CC1`, the MIC (Staphylococcus aureus [1]) was 32, the MIC (Staphylococcus aureus [3]) was 0.5 and the MIC (Staphylococcus aureus [2]) was 0.125. The MIC (Staphylococcus aureus [4]) was 8 and the MIC (Staphylococcus aureus [5]) was 1.

`O=C(O)c1cn(C2CC2)c2cc(N3CCN(/C=C/CN4CCN(c5ccccc5F)CC4)CC3)c(F)cc2c1=O` was tested, and the MIC (Staphylococcus aureus [1]) was over 16 and the MIC (Staphylococcus aureus [2]) was 0.5.

`O=C(O)c1cn(C2CC2)c2cc(N3CCN(Cc4ccc(CN5CCNCC5)cc4)CC3)c(F)cc2c1=O` gave an MIC (Staphylococcus aureus [1]) of over 16, an MIC (Staphylococcus aureus [3]) of 0.25 and an MIC (Staphylococcus aureus [2]) of 0.5. The MIC (Staphylococcus aureus [4]) was 1.

Molecule `O=C(O)c1cn(C2CC2)c2cc(N3CCN(Cc4ccc(CN5CCN(c6cc7c(cc6F)c(=O)c(C(=O)O)cn7C6CC6)CC5)cc4)CC3)c(F)cc2c1=O` has an MIC (Staphylococcus aureus [1]) of 4 and an MIC (Staphylococcus aureus [2]) of 0.125.

`O=C(O)c1cn(C2CC2)c2cc(N3CCN(/C=C/CN4CCN(c5cc6c(cc5F)c(=O)c(C(=O)O)cn6C5CC5)CC4)CC3)c(F)cc2c1=O` was tested, and the MIC (Staphylococcus aureus [1]) was over 16, the MIC (Staphylococcus aureus [3]) was 0.125 and the MIC (Staphylococcus aureus [2]) was 0.03. The MIC (Staphylococcus aureus [5]) was 0.06.

`CN1CCN(c2cc3c(cc2F)c(=O)ccn3C2CC2)CC1` gave an MIC (Staphylococcus aureus [1]) of over 16, an MIC (Staphylococcus aureus [3]) of over 16 and an MIC (Staphylococcus aureus [2]) of over 16. The MIC (Staphylococcus aureus [4]) was over 16 and the MIC (Staphylococcus aureus [5]) was over 16.

Molecule `O=C(O)c1cn(C2CC2)c2cc(N3CCN(Cc4ccc(CN5CCN(c6cc7c(cc6F)c(=O)ccn7C6CC6)CC5)cc4)CC3)c(F)cc2c1=O` has an MIC (Staphylococcus aureus [1]) of over 16, an MIC (Staphylococcus aureus [3]) of 1 and an MIC (Staphylococcus aureus [2]) of 0.25. For the same molecule, the MIC (Staphylococcus aureus [4]) was 0.5 and the MIC (Staphylococcus aureus [5]) was 0.5.

With `CCn1cc(C(=O)O)c(=O)c2cnc(N3CCNCC3)nc21` [PIPEMIDIC ACID] the MIC (Staphylococcus aureus [1]) was over 16 and the MIC (Staphylococcus aureus [2]) was over 16.

Molecule `O=C(O)c1cn(C2CC2)c2cc(N3CCN(/C=C/CN4CCNCC4)CC3)c(F)cc2c1=O` has an MIC (Staphylococcus aureus [1]) of over 16, an MIC (Staphylococcus aureus [3]) of 2 and an MIC (Staphylococcus aureus [2]) of 1. The MIC (Staphylococcus aureus [4]) was 2 and the MIC (Staphylococcus aureus [5]) was 2.

Molecule `CCn1cc(C(=O)O)c(=O)c2cnc(N3CCN(Cc4ccc(CN5CCN(c6cc7c(cc6F)c(=O)c(C(=O)O)cn7C6CC6)CC5)cc4)CC3)nc21` has an MIC (Staphylococcus aureus [1]) of 2, an MIC (Staphylococcus aureus [3]) of 0.125 and an MIC (Staphylococcus aureus [2]) of under 0.03.
